Source: ChEMBL document CHEMBL1138693, “Synthesis and biological evaluation of piperazine-based derivatives as inhibitors of plasminogen activator inhibitor-1 (PAI-1)” (Bioorg Med Chem Lett, 2004)

Legend:
[1] = target: Plasminogen activator inhibitor 1 (Homo sapiens, UniProt P05121); assay: Inhibitory concentration against plasminogen activator inhibitor-1 (PAI-1)
[2] = Half-life period of compound in rats after peroral administration; assay type: ADME, organism-based; settings: rat, in vivo, po
[3] = Bioavailability in rat; assay type: ADME, organism-based; settings: in vivo
[4] = Clearance of compound in rats after intravenous administration; assay type: ADME, organism-based; settings: rat, in vivo
[5] = […] of compound in rats after peroral administration; assay type: ADME, organism-based; settings: rat, in vivo, po
[6] = Maximal concentration in rats after peroral administration; assay type: ADME, organism-based; parameters: route oral; settings: rat, in vivo, po
[7] = Volume of distribution of compound in rats after intravenous administration; assay type: ADME, organism-based; settings: rat, in vivo, read-out: Vdss

Chain of Plasminogen activator inhibitor 1 (P05121 whole entry): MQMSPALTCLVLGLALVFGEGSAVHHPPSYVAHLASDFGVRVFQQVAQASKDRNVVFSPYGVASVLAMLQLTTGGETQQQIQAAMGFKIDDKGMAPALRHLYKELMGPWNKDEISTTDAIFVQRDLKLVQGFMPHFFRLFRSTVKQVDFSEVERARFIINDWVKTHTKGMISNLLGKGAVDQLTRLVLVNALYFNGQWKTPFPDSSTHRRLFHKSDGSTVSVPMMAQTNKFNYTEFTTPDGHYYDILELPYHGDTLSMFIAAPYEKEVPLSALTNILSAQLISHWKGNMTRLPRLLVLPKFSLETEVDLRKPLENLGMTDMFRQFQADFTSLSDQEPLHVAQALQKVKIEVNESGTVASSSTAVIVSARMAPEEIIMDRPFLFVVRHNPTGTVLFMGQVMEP

| SMILES | IC50 [1] [nM] | also measured |
| --- | --- | --- |
| O=C(O)c1ccc(CNc2ccc([N+](=O)[O-])c(N3CCN(c4cccc(C(F)(F)F)c4)CC3)c2)cc1 | 6700 |  |
| O=C(O)c1ccc(Oc2cc(N3CCN(c4cccc(C(F)(F)F)c4)CC3)c([N+](=O)[O-])cc2C(F)(F)F)cc1 | 2100 |  |
| O=C(O)c1cccc(Oc2cc(N3CCN(c4cccc(C(F)(F)F)c4)CC3)c([N+](=O)[O-])cc2C(F)(F)F)c1 | 3700 |  |
| O=C(O)c1ccccc1Oc1ccc([N+](=O)[O-])cc1CNc1ccc(N2CCN(c3cccc(C(F)(F)F)c3)CC2)c(C(F)(F)F)c1 | 1000 |  |
| O=C(O)C1CCN(c2cc(N3CCN(c4ccc(C(F)(F)F)cc4)CC3)c([N+](=O)[O-])cc2C(F)(F)F)CC1 | 1100 |  |
| O=C(O)C1CCN(c2cc(N3CCN(c4ccc(C(F)(F)F)cn4)CC3)c([N+](=O)[O-])cc2C(F)(F)F)CC1 | 3200 |  |
| CC(C)[C@@H]1CC[C@@H](C)C[C@H]1OCC(=O)N1CCN(c2cc(N3CCC(C(=O)O)CC3)c(C(F)(F)F)cc2[N+](=O)[O-])CC1 | > 15000 |  |
| O=C(O)CCNc1cc(N2CCN(c3cccc(C(F)(F)F)c3)CC2)c([N+](=O)[O-])cc1C(F)(F)F | 900 |  |
| O=C(O)C1CCN(c2cc(N3CCN(C(=O)c4cccc(C(F)(F)F)c4)CC3)c([N+](=O)[O-])cc2C(F)(F)F)CC1 | 5000 |  |
| O=C(O)C1CCN(c2cc(N3CCN(Cc4cccc(C(F)(F)F)c4)CC3)c([N+](=O)[O-])cc2C(F)(F)F)CC1 | 4300 |  |
| O=C(O)C1CCN(c2cccc(F)c2CNc2ccc(N3CCN(c4cccc(C(F)(F)F)c4)CC3)c(C(F)(F)F)c2)CC1 | 1000 |  |
| O=C(O)c1ccc(CNc2ccc(N3CCN(c4cccc(C(F)(F)F)c4)CC3)c(C(F)(F)F)c2)cc1 | 1700 |  |
| O=C(O)C1CCN(c2cc(N3CCN(C(=O)Nc4cccc(C(F)(F)F)c4)CC3)c([N+](=O)[O-])cc2C(F)(F)F)CC1 | 3500 |  |
| O=C(O)c1ccc(CNc2nc(N3CCN(c4cccc(C(F)(F)F)c4)CC3)ccc2[N+](=O)[O-])cc1 | 3400 |  |
| O=C(O)C1CCN(c2cccc(C(F)(F)F)c2CNc2ccc(N3CCN(c4cccc(C(F)(F)F)c4)CC3)c(C(F)(F)F)c2)CC1 | 1700 |  |
| O=C(O)c1ccc(CNc2cc(N3CCN(c4cccc(C(F)(F)F)c4)CC3)c([N+](=O)[O-])cc2[N+](=O)[O-])cc1 | 1400 |  |
| O=C(O)c1ccc(CNc2ccc([N+](=O)[O-])c(N3CCN(c4cccc(C(F)(F)F)c4)CC3)n2)cc1 | 6100 |  |

| SMILES | IC50 [1] [nM] | also measured |
| --- | --- | --- |
| O=C(O)C1CCCN1c1c([N+](=O)[O-])ccc(F)c1CNc1ccc(N2CCN(c3cccc(C(F)(F)F)c3)CC2)c(C(F)(F)F)c1 (stereo not given) | 1400 |  |
| O=[N+]([O-])c1cc(C(F)(F)F)c(N2CCN(c3cccc(C(F)(F)F)c3)CC2)cc1NC[P+]([O-])(O)O | 1800 |  |
| O=C(O)C1CCCN(c2cc(N3CCN(c4cccc(C(F)(F)F)c4)CC3)c([N+](=O)[O-])cc2C(F)(F)F)C1 (stereo not given) | 2800 |  |
| COc1cccc(CNc2ccc(N3CCN(c4cccc(C(F)(F)F)c4)CC3)c(C(F)(F)F)c2)c1Oc1ccc([N+](=O)[O-])cc1C(=O)O | 500 | half-life [2]: 2.8 h; bioavailability [3]: 43%; clearance [4]: 10.4 mL/min/kg; Tmax [5]: 3 h; Cmax [6]: 480 nM; Vd [7]: 1.33 L/kg |
| COc1cccc(CNc2ccc(N3CCN(c4cccc(C(F)(F)F)c4)CC3)c(C(F)(F)F)c2)c1Oc1ccc(C(=O)O)cn1 | 900 |  |
| COc1cccc(CNc2ccc(N3CCN(c4cccc(C(F)(F)F)c4)CC3)c(C(F)(F)F)c2)c1Oc1c(C(=O)O)cc(Cl)cc1[N+](=O)[O-] | 900 |  |
| O=C(O)c1ccc(CNc2cc(N3CCN(c4cccc(C(F)(F)F)c4)CC3)c([N+](=O)[O-])cc2C(F)(F)F)cc1 | 1500 |  |
| O=C(O)C1CCCN(c2cccc(F)c2CNc2ccc(N3CCN(c4cccc(C(F)(F)F)c4)CC3)c(C(F)(F)F)c2)C1 (stereo not given) | 1700 |  |
| COC(=O)c1c(NCc2ccc(C(=O)O)cc2)ccc([N+](=O)[O-])c1N1CCN(c2cccc(C(F)(F)F)c2)CC1 | > 15000 |  |
| O=C(O)C1CCN(c2c([N+](=O)[O-])ccc(F)c2CNc2ccc(N3CCN(c4cccc(C(F)(F)F)c4)CC3)c(C(F)(F)F)c2)CC1 | 700 |  |
| O=C(O)C1CCCN1c1cc(N2CCN(c3cccc(C(F)(F)F)c3)CC2)c([N+](=O)[O-])cc1C(F)(F)F (stereo not given) | 7900 |  |
| O=C(O)c1cc(Br)ccc1Oc1cccc(F)c1CNc1ccc(N2CCN(c3cccc(C(F)(F)F)c3)CC2)c(C(F)(F)F)c1 | 800 |  |
| O=C(O)C1CCN(c2cc(N3CCN(c4cccc(C(F)(F)F)c4)CC3)c([N+](=O)[O-])cc2C(F)(F)F)CC1 | 910 |  |
| O=C(O)C1CCN(c2cc(N3CCN(c4c([N+](=O)[O-])ccc(C(F)(F)F)c4[N+](=O)[O-])CC3)c([N+](=O)[O-])cc2C(F)(F)F)CC1 | > 15000 |  |
| CC(C)[C@@H]1CC[C@@H](C)C[C@H]1OCC(=O)Nc1cc(Oc2ccc(C(=O)O)cc2)ccc1[N+](=O)[O-] |  | half-life [2]: 3 h; bioavailability [3]: 23%; clearance [4]: 4.84 mL/min/kg; Tmax [5]: 3 h; Cmax [6]: 160 nM; Vd [7]: 0.4 L/kg |
| O=C(O)c1ccc(CNc2cc(N3CCN(c4cccc(C(F)(F)F)c4)CC3)ccc2[N+](=O)[O-])cc1 | 2800 |  |
| O=C(O)C1CCN(c2cc(N3CCN(c4cccc(C(F)(F)F)c4)CC3)c(C(F)(F)F)cc2[N+](=O)[O-])CC1 | 880 |  |
